Where a name gives a salt, the structure may show the parent alone. Positions of bridges follow the written chain, without caps; N, C: chain ends. No end group written: not given here.
Key:
N-type calcium channel = conditions: cited: Bowersox et al. 1994; cited from earlier work
[1] = biological target: T1, N-type voltage gated calcium channels (chicken brain synaptosomes) (Gallus gallus, UniProt A0A8V1AJW5); experiment: Chick Whole Brain Synaptosomal ^45 Calcium Flux Assay (inhibition of potassium stimulated calcium influx); type: biochemical; conditions: 20 mM KCl stimulated minus 3 mM KCl basal; 5 min drug pre-incubation, room temperature; 30-second incubation; read-out: Inhibition of ^45 Ca^+2 Influx in Chick Synaptosomes IC50
T1 construct: K+-stimulated 45Ca influx; auxiliary alpha2delta and beta subunits present but not identified
Experimental: (§1) To measure interaction at the N-type calcium channel and calcium flux inhibition, the effects of the calcium channel blockers were measured in the assays described below.
A compound is assessed at various concentrations for its ability to inhibit this potassium stimulated calcium influx.
One- to five-week old chicks were killed by decapitation and whole brain was removed. The brainstem was discarded, and the remaining brain tissue was placed in ice-cold sucrose buffer (composition: 320 mM sucrose, 5.0 mM TRIS base, 0.1 mM EDTA, pH adjusted to 7.3 with HCl). The total wet weight of pooled brain tissue was determined, and the tissue was homogenized in 10 mL sucrose buffer per gram wet weight. A Potter S-type homogenizer (B. Braun Co.) with a glass tube and teflon pestle was used. Five strokes at 400 rpm were followed by four strokes at 800 rpm. The homogenate was poured into cold centrifuge tubes and centrifuged for 10 minutes at 3000 rpm (1,075 g) in a refrigerated 4° C. RC-5 centrifuge (Sorvall) using an SS-34 rotor. The supernatant was collected and centrifuged at 11,500 rpm (15,800 g) for 10 minutes. The supernatant was discarded, and the pellet was resuspended in 1 mL sucrose buffer. Cold incubation buffer (composition: 1.2 mM MgCl2, 22 mM HEPES, 11 mM glucose, 3 mM KCl, 136 mM choline chloride, pH adjusted to 7.3 with TRIS base) was added slowly to the suspension for a total volume of 30 to 40 mL. This mixture was centrifuged at 7,000 rpm (5,856 g) for 5 minutes. The supernatant was discarded, and the pellet was resuspended in 5 mL of incubation buffer per gram of original wet weight of brain. This synaptosomal suspension was kept on ice until the start of the assay, at which time 35 μL of synaptosome suspension were added to each well of a 96-well filter plate (Millipore) which contained 75 μL incubation buffer with or without drug. Drugs were dissolved in DMSO or H2 O, and the concentration of DMSO was less than or equal to 1%.
Synaptosomes were pre-incubated in the presence or absence of drug for 5 minutes at room temperature before the addition of radioactive calcium. Drugs were present throughout the assay. Two μCi/mL stocks of ^45 CaCl2 were prepared in basal buffer (composition: incubation buffer plus 1 mM CaCl2) and in stimulation buffer (composition: 1.2 mM MgCl2, 22 mM HEPES, 11 mM glucose, 37 mM KCl, 102 mM choline chloride, 1 mM CaCl2, pH adjusted to 7.3 with TRIS base). One hundred microliter of radioactive basal or stimulation buffer were pipetted into a pre-incubated plate of synaptosomes using a Quadra 96 pipetter (Tomtec). The final KCl concentration was 3 mM for the basal condition and 20 mM for the stimulated condition; the final CaCl2 concentration was 0.5 mM with 1 μCi/mL of ^45 CaCl2. The plate was filtered under vacuum after a 30-second incubation with radioactivity. The filters were washed twice with 200 μL of wash buffer (composition: 140 mM choline chloride, 3 mM EGTA, 22 mM HEPES, pH adjusted to 7.3 with TRIS base). Plates were allowed to dry completely. Scintillation fluid was added (20 μL/well), and the plates were counted in a Wallace Microbeta plate counter. Basal ^45 CaCl2 flux (3 mM KCl) was subtracted from stimulated ^45 CaCl2 flux (20 mM KCl) in both control and drug-treated conditions, and data were expressed as percent inhibition of the adjusted control response. Values obtained in this way were plotted as a function of drug concentration and IC50 values were calculated.

[2] = biological target: T2, N-type calcium channels (IMR-32 cells) (Homo sapiens, UniProt Q00975); experiment: N-type Ca2+ channel blocking potency in IMR-32 cells using fluorescent Ca2+ indicator Indo-1; type: cell-based; conditions: K+ depolarization, 5 μM nitrendipine present to block L-type channels, 10 min at 30° C., read-out: Inhibition of ^45 Ca^+2 Influx in IMR-32 Cells IC50
T2 construct: host or cells: IMR-32, differentiated with dibutyryl cAMP and bromodeoxyuridine
Experimental: as §1
IMR-2 cells are a human tumoral cell line of neural origin. […] Calcium flux into these cells may be induced by stimulation with elevated potassium concentrations. The L-channel component of calcium flux may be blocked by adding 5 μM nitrendipine. The remaining component of calcium entry into the IMR-32 cells is due to calcium flux through N-type calcium channels. Intracellular calcium concentrations are measured using the fluorescent calcium indicator Indo-1. The effect of drug concentration on calcium uptake is studied.
The IMR-32 cell line was obtained from the American Type Culture Collection (Rockville, Md.). Cells were grown in Eagle's Minimum Essential Medium with Earle's salts supplemented with 10% fetal bovine serum, 2 mM L-Gln and antibiotic/antimicotic mixture (Gibco). At approximately 80% confluency, differentiation was induced by the addition of 1 mM dibutyryl cAMP and 2.5 μM bromodeoxyuridine to the medium. After 7 to 13 days of differentiation, cells were detached using 0.5 mM EDTA and loaded with 5 μM Indo-1 acetoxymethyl ester (Molecular Probes, Eugene, Or.) at 30° C. for 45 minutes. Loaded cells were washed twice, resuspended (~10^7 cells/mL) in assay buffer (10 mM HEPES/Tris pH 7.4 in Hank's Balanced Salt Solution without bicarbonate or phenol red containing 0.5% bovine serum albumin) and kept on ice until use. Fluorescence measurements were carried out in a Photon Technology International (PTI, South Brunswick, N.J.) Model RF-F3004 spectrofluorometer with dual emission monochromators using excitation at 350 nm and emission at 400 and 490 nm. The instrument was equipped with a thermostatted cuvette holder with stirring capabilities as well as with a computer-controlled pump which allowed for reagent addition during measurement. Instrument control and data collection was done by PTI's OSCAR software running on an IBM compatible computer. Different concentrations of the test compounds (60 μL in dimethyl sulfoxide) were added to 5.94 mL of assay buffer containing approximately 3×10^6 loaded cells, and 5 μM Nitrendipine (in 30 μL EtOH) to block L-type Ca^2+ channels. Samples were incubated for 10 minutes at 30° C. and then aliquoted into three 10×10 mm disposable acrylic cuvettes. Emission signals at 400 and 490 nm were acquired from each cuvette at 30° C. for 50 seconds. At 20 seconds after the start of reading, cells were depolarized by the addition of 160 μL of stimulation solution (1M KCl, 68 mM CaCl2) to the cuvette via the computer-controlled pump. Ratio of dual emission signals (400 nm/490 nm), which is proportional to intracellular Ca^2+ concentration, was plotted against time, and the difference between maximal response after stimulation and basal value (before stimulation) was determined. Values obtained in this way were plotted as a function of drug concentration. IC50 values of test compounds were calculated by fitting a 4-parameter logistic function to the data using the least squares method.

T1 sequence (A0A8V1AJW5 1-2349): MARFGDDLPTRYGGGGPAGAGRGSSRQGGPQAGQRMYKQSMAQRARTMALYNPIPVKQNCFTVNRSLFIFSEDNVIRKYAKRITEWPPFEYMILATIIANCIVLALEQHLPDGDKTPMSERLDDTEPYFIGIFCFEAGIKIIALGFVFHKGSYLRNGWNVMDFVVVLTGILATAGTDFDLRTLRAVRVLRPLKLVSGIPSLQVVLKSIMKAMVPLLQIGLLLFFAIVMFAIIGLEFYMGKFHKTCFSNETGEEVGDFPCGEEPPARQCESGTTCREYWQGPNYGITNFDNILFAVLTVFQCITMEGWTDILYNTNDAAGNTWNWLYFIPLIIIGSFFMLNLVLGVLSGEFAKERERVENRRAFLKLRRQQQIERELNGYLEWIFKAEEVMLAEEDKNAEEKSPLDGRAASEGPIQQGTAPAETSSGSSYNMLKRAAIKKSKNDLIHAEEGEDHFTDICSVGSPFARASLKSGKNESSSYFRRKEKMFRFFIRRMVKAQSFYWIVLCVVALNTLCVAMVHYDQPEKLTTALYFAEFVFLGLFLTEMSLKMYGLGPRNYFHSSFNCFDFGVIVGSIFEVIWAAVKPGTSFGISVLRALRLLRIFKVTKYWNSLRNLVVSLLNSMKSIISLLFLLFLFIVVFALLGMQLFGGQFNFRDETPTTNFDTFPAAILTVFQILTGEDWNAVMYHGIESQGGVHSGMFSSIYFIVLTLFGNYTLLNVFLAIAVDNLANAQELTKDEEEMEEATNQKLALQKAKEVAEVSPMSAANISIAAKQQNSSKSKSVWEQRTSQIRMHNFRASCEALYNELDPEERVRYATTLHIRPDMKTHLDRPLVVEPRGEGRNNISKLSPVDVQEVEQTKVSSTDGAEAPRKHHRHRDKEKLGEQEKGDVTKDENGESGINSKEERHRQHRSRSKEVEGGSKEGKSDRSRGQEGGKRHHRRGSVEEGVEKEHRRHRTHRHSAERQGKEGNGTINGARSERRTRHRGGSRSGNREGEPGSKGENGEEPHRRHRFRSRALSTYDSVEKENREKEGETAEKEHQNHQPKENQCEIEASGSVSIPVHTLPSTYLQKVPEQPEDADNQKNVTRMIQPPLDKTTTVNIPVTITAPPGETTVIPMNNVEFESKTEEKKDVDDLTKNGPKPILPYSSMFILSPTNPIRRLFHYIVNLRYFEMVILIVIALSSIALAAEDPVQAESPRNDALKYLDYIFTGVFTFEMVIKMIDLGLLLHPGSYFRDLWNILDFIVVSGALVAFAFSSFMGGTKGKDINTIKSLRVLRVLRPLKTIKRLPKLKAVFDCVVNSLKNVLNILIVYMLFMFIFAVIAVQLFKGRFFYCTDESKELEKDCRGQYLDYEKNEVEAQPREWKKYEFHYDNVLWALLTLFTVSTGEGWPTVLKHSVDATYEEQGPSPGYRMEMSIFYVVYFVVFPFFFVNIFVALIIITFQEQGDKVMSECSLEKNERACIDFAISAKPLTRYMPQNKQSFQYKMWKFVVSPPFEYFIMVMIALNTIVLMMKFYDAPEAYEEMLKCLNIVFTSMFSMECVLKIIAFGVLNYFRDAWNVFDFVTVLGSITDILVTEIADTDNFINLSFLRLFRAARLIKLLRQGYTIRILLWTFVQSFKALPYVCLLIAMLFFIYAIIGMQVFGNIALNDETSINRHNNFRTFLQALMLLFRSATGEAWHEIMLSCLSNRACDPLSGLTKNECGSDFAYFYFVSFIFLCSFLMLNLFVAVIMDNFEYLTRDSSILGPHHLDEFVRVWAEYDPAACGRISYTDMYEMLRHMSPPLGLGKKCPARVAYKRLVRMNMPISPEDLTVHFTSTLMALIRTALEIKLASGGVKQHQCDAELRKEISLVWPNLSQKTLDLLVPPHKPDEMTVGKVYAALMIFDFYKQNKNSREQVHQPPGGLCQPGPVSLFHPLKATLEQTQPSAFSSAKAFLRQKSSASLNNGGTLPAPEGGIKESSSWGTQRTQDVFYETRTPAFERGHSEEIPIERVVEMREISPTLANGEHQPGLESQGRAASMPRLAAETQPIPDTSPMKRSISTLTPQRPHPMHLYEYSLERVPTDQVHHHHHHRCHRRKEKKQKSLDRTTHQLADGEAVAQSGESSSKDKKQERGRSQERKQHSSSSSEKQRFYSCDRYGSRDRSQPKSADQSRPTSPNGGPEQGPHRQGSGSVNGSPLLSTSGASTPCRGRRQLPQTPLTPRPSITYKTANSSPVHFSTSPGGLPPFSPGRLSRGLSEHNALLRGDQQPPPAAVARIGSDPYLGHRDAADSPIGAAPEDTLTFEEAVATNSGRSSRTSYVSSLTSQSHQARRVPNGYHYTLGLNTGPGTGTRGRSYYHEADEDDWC

Row | Compound | activity in a number of models of ischemia and pain (N-type calcium channel) | IC50 [1] [nM] | IC50 [2] [nM]
1 | SNX-111: selective N-type calcium channel blocker, SNX-111 (CKGKGAKCSRLMYDCCTGSCRSGKC-NH2; disulfide 1-16, 15-25, 8-20; UniProt P05484 46-70, looked up) | demonstrated activity |  | 
2 | CC(CCC(c1ccccc1)c1ccccc1)(c1ccc(O)c(CN2CCCCCC2)c1)c1ccc(O)c(CN2CCCCCC2)c1 [Example 6, 4,4'-(1-Methyl-4,4-diphenylbutylidene)bis[2-[(hexahydro-1H-azepin-1-yl)methyl]phenol] oxalic acid salt] |  | 3150 | 740
3 | CC(NC(=O)c1ccccc1)C(c1ccc(O)c(CN2CCCCCC2)c1)c1ccc(O)c(CN2CCCCCC2)c1 (stereo not drawn) [Example 21, N-[2,2-Bis-(3-azepan-1-ylmethyl-4-hydroxyphenyl)-1-methylethyl]benzamide oxalic acid salt] |  | 2200 | 14000
4 | O=C(NCC(c1ccc(O)c(CN2CCCCCC2)c1)c1ccc(O)c(CN2CCCCCC2)c1)C(c1ccccc1)c1ccccc1 [Example 20, N-[2,2 -Bis-(3-azepan-1-ylmethyl-4-hydroxyphenyl)ethyl]-2,2-diphenylacetamide oxalic acid salt] |  | 2400 | 
5 | CC(CCCN(Cc1ccccc1)Cc1ccccc1)(c1ccc(O)c(CN2CCCCCC2)c1)c1ccc(O)c(CN2CCCCCC2)c1 [Example 10, 4,4'-[4-[Bis(phenylmethyl)amino]-1-methylbutylidene]-bis[2-[(hexahydro-1H-azepin-1yl)methyl]phenol] oxalic acid salt] |  | 4200 | 430
6 | CC(CCC(O)(c1ccccc1)c1ccccc1)(c1ccc(O)c(CN2CCCCCC2)c1)c1ccc(O)c(CN2CCCCCC2)c1 [Example 3, 4,4'-(4-Hydroxy-1-methyl-4,4-diphenylbutylidene)bis[2-[(hexahydro-1H-azepin-1-yl)methyl]phenol] oxalic acid salt] |  | 1400 | 490
7 | O=C(NCC(c1ccc(O)c(CN2CCCCCC2)c1)c1ccc(O)c(CN2CCCCCC2)c1)c1ccccc1 [Example 19, N-[2,2-Bis-(3-azepan-1-ylmethyl-4-hydroxyphenyl)ethyl]-benzamide oxalic acid salt] |  | 2400 | 17000

Reference: patent US6124280A, “Substituted phenols as novel calcium channel blockers” (Warner-Lambert Company, priority 1998, dated 2000)
